Where two headings read alike, the source gives them in different places.

One data set has as its system HIV-1. Description: microbe, parasite or virus in culture. The conditions noted are these: for HIV-1 potency compared to parent nucleoside TFV: in words. As for the experimental part:
(§1) Compounds synthesized were evaluated against HIV-infected PBMCs and antiviral activity was assessed by measuring reverse transcriptase in cell supernatants. Compounds 11a-e, 12a-e, and 13 were assayed against HBV and qPCR was used to quantify viral DNA following incubation in HepG2.2.15 cells after 6 days.

A further data set is described as follows: in vitro. The data set is classed as cell-based, human. The conditions noted are these: human, Table 1, viability of uninfected cells reduced by 50%, read-out: HIV-1 CC50 (PBMCs).
A further data set deals with PBMCs. Briefly: in vitro. The data set is classed as cell-based, human.
The subject of a further data set is HBV. Briefly: Antiviral activity against HBV in HepG2.2.15 cells, viral DNA by qPCR after 6 days. The conditions noted are these: for HBV TI (CC50/EC50): HepG2. As for the experimental part:
as §1
(Quantitative PCR measures a nucleic acid by following its amplification.)

The test system of another data set is HepG2. Description: Cytotoxicity: viability of uninfected HepG2 cells. The conditions noted are these: read-out: HBV CC50 (HepG2). In kind it is cell-based.
Data set [1] can be described thus: Stability in PBS (pH 7.4), carbonate/bicarbonate buffer (pH 9) and DMEM by LC-MS. The conditions noted are these: for half-life: PBS buffer.
Method: Compound 11c and 11d were selected as model compounds and subjected to various media including human serum, PBS buffer (pH 7.4), Dulbecco's Modified Eagle Medium (DMEM), and carbonate/bicarbonate buffer (pH 9). Aliquots of each sample were analyzed by LC-MS at varying times points over the course of 2 hours with a final time point at 24 to assess decomposition.
Experiments were performed to see how compounds how compounds 11c and 11d would fare in the presence of base (pH 9), PBS (pH 7.4), and upon exposure to nucleophilic media (DMEM). […] To this end, the stability of hexadecyloxypropyl 2′-deoxy-2′-fluorouridine, a non-labile alkoxyalkyl lipid conjugate of 2′-deoxy-2′-fluorouridine in PBS buffer using Pyrex, Kimax, and silanized glassware was assessed. […] This prompted re-assessment of the PBS stability of the disulfide lipid conjugates in Kimax glassware. Note that all stability experiments were performed in Kimax glassware using hexadecyloxypropyl 2′-deoxy-2′-fluorouridine as an internal standard.
Data set [2] is described as follows: Cytotoxicity: viability of uninfected HepG2 cells. In kind it is cell-based. The conditions noted are these: human, uninfected HepG2 cells; Table 1; uninfected cells; read-out: HBV CC50 (HepG2).
The nature of data set [3]: Stability in human plasma/serum by LC-MS. In kind it is in vitro ADME.
Method: Aliquots of each sample were analyzed by LC-MS at varying times points over the course of 2 hours with a final time point at 24 to assess decomposition.
The conditions of data set [4]: monkeys; cited from earlier work.
The conditions of data set [5]: rats; cited from earlier work.
Where [6] appears, read: Human immunodeficiency virus 1, PBMC, read-out: HIV-1 EC50 (PBMCs).
Where [7] appears, read: Human immunodeficiency virus 1, PBMC, read-out: HIV-1 activity (EC50).
Setting [8] is: read-out: HIV-1 EC50 (PBMCs), Table 1, inhibit HIV-1 by 50%, average of triplicate.
[9] abbreviates: Table 1, viability of uninfected cells reduced by 50%, read-out: HIV-1 CC50 (PBMCs).
Where [10] appears, read: read-out: HBV EC50 (HepG2), Table 1, inhibit HBV by 50%.
The mark [11] stands for this setting: read-out: HIV-1 EC50 (PBMCs), Table 2.
The mark [12] stands for this setting: Table 2, read-out: HIV-1 CC50 (PBMCs).
Setting [13] is: read-out: HBV EC50 (HepG2), Table 2.

As usually defined, the CC50 is the concentration at which the toxic effect on the cells reaches its halfway point. `CCCCCCCCCCCCCCCCOCCCOP(=O)(O)CO[C@H](C)Cn1cnc2c(N)ncnc21` [CMX-157, Hexadecyloxypropyl-Tenofovir, reference compound]: the “HIV-1 TI (CC50/EC50)” value with HIV-1 was above 5000. Besides, the EC50 in the data set on HIV-1 (setting [6]) and in the data set with HIV-1 (setting [7]) was 0.02 µM each time. The half-maximal cytotoxic concentration (CC50) in “in vitro” is above 100 µM.
On to `CCCCCCCCCCCCCCSSCCOP(=O)(O)CO[C@H](C)Cn1cnc2c(N)ncnc21.N` [Compound 11c], for which, in the data set with HIV-1 (Table 1, PBMCs), the “HIV-1 TI (CC50/EC50)” value was 28,000. For the same compound, the results for the EC50 in the data set on HIV-1 (setting [8]) and in the data set on HBV (setting [10]) were 0.0005 µM and 0.444 µM, respectively. In addition, the CC50 is 14 µM in the data set on PBMCs (setting [9]) and above 25 µM in the data set on HepG2 (Table 1, uninfected cells). In addition, the “HBV TI (CC50/EC50)” value in the data set with HBV (Table 1) is above 56. Further, the “stability of C14 chain relative to C16 linker of compound 11d” value in data set [1] (all examined media except human serum) was “near two-fold stability increase”.
In general, half-life refers to the time in which the quantity being followed falls by half. On to `CCCCCCCCCCCCCCCCSSCCOP(=O)(O)COC(C)Cn1cnc2c(N)ncnc21` (stereo not shown) [Compound 11d, 2-(hexadecyldisulfanyl)ethyl hydrogen (((1-(6-amino-9H-purin-9-yl)propan-2-yl)oxy)methyl)phosphonate], for which the EC50 is 0.00065 µM with HIV-1 (setting [6]); around 0.0005 µM in the data set with HIV-1 (setting [7]); 0.02 µM in the data set with HBV (Hepatitis B virus, HepG2, read-out: HBV EC50 (HepG2)); 0.02 µM in the data set on HBV (Hepatitis B virus, HepG2, read-out: HBV potency). The “HIV-1 TI (CC50/EC50)” value in the data set with HIV-1 (Table 1, PBMCs) is reported as 22,000; with HIV-1 (Table 3, PBMCs) it was 22,000. The half-maximal cytotoxic concentration (CC50) was 14.3 µM in the data set “in vitro” (uninfected PBMCs), above 25 µM in data set [2] and above 25 µM in the data set with HepG2 (Table 3). Besides, the “HBV TI (CC50/EC50)” value with HBV (Table 1) is above 1250; in the data set on HBV (Table 3), above 1200. Also, the half-life in [3] (human serum, Kimax glassware, read-out: stability (half-life) in human serum) is above 24 h; in data set [3] (human, human plasma, read-out: half-life in human plasma), above 24 h; in [1] (carbonate/bicarbonate buffer and DMEM, pH 9) it was at most 2 h; in data set [1] (pH 7.4) it was below 0.333 h.
With `CCCCCCCCCCSSCCOP(=O)(CO[C@H](C)Cn1cnc2c(N)ncnc21)OCCSSCCCCCCCCCC` [Compound 12a], the “HIV-1 TI (CC50/EC50)” value in the data set on HIV-1 (Table 2, PBMCs) is above 287. The “HIV-1 potency compared to parent nucleoside TFV” value in the data set with HIV-1 is “comparable to TFV”. Besides, the results for the EC50 in the data set with HIV-1 (setting [11]) and in the data set with HBV (setting [13]) were 0.349 µM and above 100 µM, respectively. Further, the 50% cytotoxic concentration (CC50) in the data set with PBMCs (setting [12]) and in the data set with HepG2 (Table 2) was above 100 µM each time. In the data set on HBV (Table 2), the “HBV TI (CC50/EC50)” value is listed as above 1.
As to `CCCCCCCCCCCCSSCCOP(=O)(CO[C@H](C)Cn1cnc2c(N)ncnc21)OCCSSCCCCCCCCCCCC` [Compound 12b], the “HIV-1 TI (CC50/EC50)” value in the data set on HIV-1 (Table 2, PBMCs) is given as above 85.0. The EC50 in the data set on HIV-1 (setting [11]) was 1.18 µM; in the data set on HBV (setting [13]), above 100 µM. Also, the CC50 with PBMCs (setting [12]) and with HepG2 (Table 2) was above 100 µM in each case. The “HBV TI (CC50/EC50)” value in the data set on HBV (Table 2) is above 1.
Take `CCCCCCCCCCCCCCSSCCOP(=O)(CO[C@H](C)Cn1cnc2c(N)ncnc21)OCCSSCCCCCCCCCCCCCC` [Compound 12c]: in the data set on HIV-1 (Table 2, PBMCs), the “HIV-1 TI (CC50/EC50)” value was above 529. Further, the “HIV-1 potency compared to parent nucleoside TFV” value in the data set on HIV-1 is on record as “two-fold increase in activity”. The EC50 in the data set on HIV-1 (setting [11]) was 0.189 µM; in the data set with HBV (setting [13]) it was above 100 µM. Besides, the CC50 in the data set on PBMCs (setting [12]) and in the data set on HepG2 (Table 2) was above 100 µM each time. Also, the “HBV TI (CC50/EC50)” value with HBV (Table 2) was above 1.
Regarding `CCCCCCCCCCCCCCCCSSCCOP(=O)(CO[C@H](C)Cn1cnc2c(N)ncnc21)OCCSSCCCCCCCCCCCCCCCC` [Compound 12d], the “HIV-1 TI (CC50/EC50)” value in the data set with HIV-1 (Table 2, PBMCs) turned out to be 4.0. The figures for the EC50 with HIV-1 (setting [11]) and in the data set with HBV (setting [13]) were 6.32 µM and above 25 µM, respectively. The CC50 with PBMCs (setting [12]) and in the data set on HepG2 (Table 2) was above 25 µM throughout. Moreover, the “HBV TI (CC50/EC50)” value in the data set on HBV (Table 2) is listed as above 1.
As to `CCCCCCCCCCCCCCCCCCSSCCOP(=O)(CO[C@H](C)Cn1cnc2c(N)ncnc21)OCCSSCCCCCCCCCCCCCCCCCC` [Compound 12e], the “HIV-1 TI (CC50/EC50)” value with HIV-1 (Table 2, PBMCs) is above 76. In addition, the “HIV-1 potency compared to parent nucleoside TFV” value in the data set with HIV-1 is “comparable to TFV”. Besides, the figures for the EC50 in the data set on HIV-1 (setting [11]) and with HBV (setting [13]) were 0.331 µM and above 25 µM, respectively. The CC50 in the data set on PBMCs (setting [12]) and in the data set with HepG2 (Table 2) was above 25 µM in each case. Further, the “HBV TI (CC50/EC50)” value in the data set with HBV (Table 2) is above 1.
Regarding `C[C@H](Cn1cnc2c(N)ncnc21)OCP(=O)(O)OCCSSCCO` [DTE-TFV, reference compound], the “fold less active than TFV against HIV-1” value with HIV-1 came out at 5 fold. The “HIV-1 TI (CC50/EC50)” value in the data set with HIV-1 (Table 1, PBMCs) is listed as above 62.1. Further, the EC50 in the data set on HIV-1 (setting [8]) turned out to be 1.61 µM; in the data set on HBV (setting [10]), 11.6 µM. For the same compound, the cytotoxic concentration (CC50) with PBMCs (setting [9]) is above 100 µM; in the data set with HepG2 (Table 1, uninfected cells), above 100 µM. In the data set with HBV (Table 1), the “HBV TI (CC50/EC50)” value was above 8.6. Further, in [3] (human plasma), the “t1/2 in human plasma” value is 0.567 h.
In general, bioavailability refers to dose-corrected exposure relative to a reference, in per cent. Regarding `Nc1ncnc2c1ncn2CCOCP(=O)(O)O` [adefovir], the bioavailability in data set [4] was below 1%; in [5], 8-11%.
Turning to “tenofovir disoproxil fumarate [TDF, reference compound]”, the “HIV-1 TI (CC50/EC50)” value in the data set with HIV-1 (Table 1, PBMCs) is given as 9,500; with HIV-1 (Table 2, PBMCs), 9,500; with HIV-1 (Table 3, PBMCs), 9,500. Also, the “TI(CC50/EC50)” value with HIV-1 (Table 4, HIV-1, PBMCs) was 9,500. In addition, the EC50 in the data set on HIV-1 (read-out: EC50 (PBMCs), Table 4, HIV-1) was found to be 0.0046 µM; in the data set on HIV-1 (setting [8]), 0.0046 µM; in the data set on HIV-1 (setting [11]), 0.0046 µM; with HIV-1 (read-out: HIV-1 EC50 (PBMCs), Table 3) it was 0.0045 µM; in the data set with HIV-1 (read-out: HIV-1 activity (EC50), PBMCs) it was 0.0046 µM; in the data set with HBV (setting [10]), 0.34 µM. Further, the EC50 in the data set with HBV (setting [13]) stood at 0.34 µM; with HBV (read-out: HBV EC50 (HepG2), Table 3), 0.34 µM. The CC50 stood at 43.7 µM in the data set on PBMCs (setting [9]); 43.7 µM with PBMCs (setting [12]); 44 µM in the data set with PBMCs (Table 3, read-out: HIV-1 CC50 (PBMCs)); 43.7 µM in the data set with PBMCs (Table 4, read-out: CC50 (PBMCs)); 64.5 µM in the data set with HepG2 (Table 1, uninfected cells); 29.2 µM with HepG2 (Table 2). Further, the CC50 in the data set on HepG2 (Table 3) came to 64.5 µM. Moreover, the figures for the “HBV TI (CC50/EC50)” value in the data set on HBV (Table 1), in the data set on HBV (Table 2) and in the data set on HBV (Table 3) were 190, 86 and 190, respectively.

The values are drawn from patent US11801255B2, “Lipid disulfide prodrugs and uses related thereto” (priority 2017, dated 2023).
